Read-outs that look alike come from different tables or passages of the source.
How the values were obtained:
[1] = test system: 4T1 (mouse triple-negative breast cancer cells); test: MTT viability assay / IC50 determination in 4T1 cells; type: cell-based; conditions: for cytotoxic effect on 4T1 cells, MTT assay: 20 μM; for cytotoxic effect on 4T1 cells, MTT assay / cytotoxicity (viability of 4T1 cells), MTT assay: 48 h; for cytotoxicity (viability of 4T1 cells), MTT assay: 10 or 20 μM, Figure S74; for IC50: MTT assay, 48 h treatment, n = 6–8, read-out: IC50 [95% C.I.], 4T1
Procedure: (§1) 4T1 (mouse triple-negative breast cancer cells) were cultured in RPMI (Roswell Park Memorial Institute) 1640 medium supplemented with 5% fetal bovine serum (FBS) (both from Thermo Fisher Scientific, Waltham, MA, USA). MDA-MB-231 (human triple-negative breast cancer cells, abbreviated as MDA) were cultured in DMEM (Dulbecco’s modified Eagle’s medium, Thermo Fisher Scientific) + 5% FBS. D3 (hCMEC/D3 human cerebral microvascular endothelial cells) were kept in rat tail collagen-coated dishes in EBM-2 (endothelial basal medium-2, Lonza, Basel, Switzerland) complemented with 2% FBS and an EGM-2MV kit (Lonza).
(§2) Viability and impedance measurements were performed in the log growth phase of tumor cells and in the stationary phase of endothelial cells.
(§3) For the MTT (3-[4,5-dimethylthiazole-2-yl]-2,5-diphenyltetrazolium bromide) viability assay, cells were plated in 96-well plates (Corning, Corning, NY, USA). The seeding density of the cells was 5000/well (for 4T1 or MDA cells) or 25 000/well (for D3 cells). After 48 h, half of the medium was replaced with serum-free medium, containing the test compounds in a final concentration of 10 or 20 μM. Control wells received solvent (DMSO) in up to a 0.2% concentration. After 48 h, MTT reagent (Sigma-Aldrich, St. Louis, MO, USA) was added to the cells in a final concentration of 2.5 mg/mL. After incubation at 37 °C for 30 min, acidified isopropanol solution was added to each well. Absorbance was measured at 595 nm with a FLUOstar OPTIMA microplate reader (BMG LABTECH, Offenburg, Germany). Doxorubicin was used as a positive control, at a concentration of 10 μM.
(§4) For determining IC50 values, nine-step, 2-fold serial dilutions of the test compounds were applied, starting from 100 μM. Cells were treated for 48 h, and viability was measured with the MTT assay, as described above. Half-maximum inhibitory concentrations (IC50) were calculated via nonlinear dose–response curve fitting by the log(inhibitor) vs response (variable slope) model of GraphPad Prism 5.01 (GraphPad Software, San Diego, CA, USA) by using automatic outlier elimination at Q = 1.0.

[2] = test system: 4T1 (mouse triple-negative breast cancer cells); test: Impedance measurement (xCELLigence RTCA, cell index) in 4T1 cells; type: cell-based; conditions: 20 μM, 48 h
Procedure: as §1, §2
For impedance measurements, cells were plated in 96-well E-plates having microelectrodes integrated on the bottom (ACEA Biosciences, San Diego, CA, USA) and allowed to attach onto the electrode surface for 48 h. Afterward, cells were treated with the test compounds as described above. Electrical impedance was recorded every 30 min for 48 h using an xCELLigence real-time cell analysis (RTCA) instrument (ACEA Biosciences). Cell index was automatically calculated by the software of the instrument.

[3] = test system: D3 (hCMEC/D3 human cerebral microvascular endothelial cells); test: MTT viability assay / IC50 determination in D3 endothelial cells; type: cell-based; conditions: for cytotoxicity (viability of D3 cells), MTT assay: 10 or 20 μM, 48 h, Figure S74; for IC50: MTT assay, 48 h treatment, n = 6–8, read-out: IC50 [95% C.I.], D3
Procedure: as §1, §2, §3, §4

[4] = test system: MDA-MB-231 (human triple-negative breast cancer cells); test: MTT viability assay / IC50 determination in MDA-MB-231 cells; type: cell-based; conditions: for cytotoxicity (viability of MDA cells), MTT assay: 10 or 20 μM, 48 h, Figure S74; for IC50: MTT assay, 48 h treatment, n = 6–8, read-out: IC50 [95% C.I.], MDA-MB-231
Procedure: as §1, §2, §3, §4

[5] = test system: A2780 human ovarian cancer cells; set-up: method as in Bús et al. 8; conditions: ref Bús et al. 8; cited from earlier work
[6] = test system: HeLa cervical cancer cells; set-up: method as in PMID 31005716; conditions: cited from earlier work

Row | Compound | cytotoxic effect on 4T1 cells, MTT assay [1] | cytotoxic effect on 4T1 cells, impedance measurements (cell index) [2] | cytotoxicity (viability of D3 cells), MTT assay [3] | cytotoxicity (viability of 4T1 cells), MTT assay [1] | cytotoxicity (viability of MDA cells), MTT assay [4] | also measured
1 | C=Cc1cc(O)cc2c1-c1ccc(OC)c(C)c1CC2 [7-hydroxy-2-methoxy-1-methyl-5-vinyl-9,10-dihydrophenanthrene] | not cytotoxic | not cytotoxic | – | – | – | –
2 | C=C[C@@]1(C)C(=O)C2=C(C[C@H]1O)c1ccc(O)c(C)c1CC2 [jinflexin C] | – | moderate cytotoxicity | – | – | – | –
3 | Gerardiin K [Compound 11] | – | – | cytotoxic | cytotoxic | cytotoxic | IC50 [3]: 10.6 µM; IC50 [1]: 8.1 µM; IC50 [4]: > 10 µM
4 | C=Cc1cc(O)cc2ccc3c(C)c(O)ccc3c12 [Compound 14, dehydroeffusol] | – | – | no or very low cytotoxicity | no or very low cytotoxicity | no or very low cytotoxicity | –
5 | C=Cc1cc(O)cc2c1-c1ccc(O)c(C)c1CC2 [Compound 13, effusol] | – | – | no or very low cytotoxicity | no or very low cytotoxicity | no or very low cytotoxicity | –
6 | COc1cccc2c1C(=O)c1c(O)c3c(c(O)c1C2=O)C[C@@](O)(C(=O)CO)C[C@@H]3O[C@H]1C[C@H](N)[C@H](O)[C@H](C)O1 [doxorubicin, reference compound] | – | – | – | – | – | IC50 ([3]; Homo sapiens, hCMEC/D3): 0.8 µM; IC50 ([1]; Mus musculus, 4T1, 48 h): 3.4 µM; IC50 ([4]; Homo sapiens, MDA-MB-231, 48 h): 0.8 µM
7 | Gerardiin J [Compound 10] | – | – | cytotoxic | cytotoxic | cytotoxic | IC50 [3]: 15.7 µM; IC50 [1]: 5.6 µM; IC50 [4]: 6.6 µM
8 | Cc1c(O)ccc2c1CCc1cc(O)cc(CO)c1-2 [2,7-dihydroxy-5-hydroxymethyl-1-methyl-9,10-dihydrophenanthrene] | not cytotoxic | not cytotoxic | – | – | – | –
9 | C=Cc1c(C)c(O)cc2c1-c1ccc(OC)c(C)c1CC2 [compressin A] | not cytotoxic | not cytotoxic | – | – | – | –
10 | Cc1c(O)ccc2c1CCc1cc(O)cc(C=O)c1-2 [2,7-dihydroxy-5-formyl-1-methyl-9,10-dihydrophenanthrene] | not cytotoxic | not cytotoxic | – | – | – | –
11 | C=Cc1cc(O)c(Cc2c(O)cc(C=C)c3c2ccc2c(C)c(O)ccc23)c2c1-c1ccc(O)c(C)c1CC2 [Compound 12, Gerardiin L] | – | – | cytotoxic | cytotoxic | cytotoxic | IC50 ([3]; Homo sapiens, hCMEC/D3): 13.7 µM; IC50 [1]: > 10 µM; IC50 ([1]; Mus musculus, 4T1, 48 h): 11.7 µM; IC50 ([4]; Homo sapiens, MDA-MB-231, 48 h): 7.3 µM
12 | C=Cc1cc(O)cc2c1-c1cc(-c3cc4c(c(C)c3O)CCc3cc(O)cc(C=C)c3-4)c(O)c(C)c1CC2 [Compound 15, Effususin A] | – | – | cytotoxic | cytotoxic | cytotoxic | toxicity in A2780 human ovarian cancer cells [5]: moderate toxicity
13 | COC(C)c1cc(O)cc2c1-c1ccc(O)c(C)c1CC2 (stereo not drawn) [effususol A] | not cytotoxic | not cytotoxic | – | – | – | –
14 | C=Cc1c(C)c(O)cc2c1-c1ccc(O)c(C)c1CC2 [juncusol] | moderate cytotoxicity | moderate cytotoxicity | – | – | – | antiproliferative activity against HeLa cervical cancer cells [6]: antiproliferative activity
15 | Cc1c(O)ccc2c1CCc1cc(O)cc(C3CC=Cc4c5c(cc(O)c43)CCc3c-5ccc(O)c3C)c1-2 (stereo not drawn) [Compound 9, Gerardiin I] | – | – | cytotoxic | cytotoxic | cytotoxic | IC50 ([3]; Homo sapiens, hCMEC/D3): 21.6 µM; IC50 [1]: 7.8 µM; IC50 ([1]; Mus musculus, 4T1, 48 h): < 10 µM; IC50 ([4]; Homo sapiens, MDA-MB-231, 48 h): < 10 µM; IC50 [4]: 8 µM

Reference: article PMC7660940, “Gerardiins A–L and Structurally Related Phenanthrenes from the Halophyte Plant Juncus gerardii and Their Cytotoxicity against Triple-Negative Breast Cancer Cells” (Journal of Natural Products, 2020)
